How the values were obtained:
p300 = target: T1, p300 (Homo sapiens, UniProt Q09472); experiment: In-situ photocrosslinking with p300-p probe and competition by AceTAG-1 in HEK293T cells; assay type: cell-based; conditions: increasing concentrations of AceTAG-1, 30 min, FIG. 3F
T1 construct: expressed in transfected cells; host or cells: HEK293T (transient)
Method: In-situ photocrosslinking with p300-BRD photocrosslinking probe and competition by AceTAG-1: At 50%-70% confluency, HEK293t cells in 6-well plates were transfected with pSG5-HA-p300. After 24 h, cells were co-treated for 30 min with […] p300-p probe and increasing concentration of AceTAG-1 in serum-free media. Cells then underwent UV-photocrosslinking (365 nm) for 20 min at 4° C. and harvested in cold DPBS by scraping and centrifugation. Cell pellets were washed with cold DPBS two times and aspirated. Cells were then lysed in 200 μL DPBS buffer supplemented with 1X Halt protease inhibitor cocktail. Lysate was fractionated by ultracentrifuge (100000 g, 45 min, 4° C.) to provide soluble fraction (supernatant) and membrane fraction (pellets). Soluble fraction was normalized to 2 mg/mL, underwent click reaction with Rhodamine-azide as previously described. Proteins (25 μg total protein loaded per gel lane) were resolved using SDS-PAGE (6% acrylamide). In-gel fluorescence visualization and immunoblot analysis was carried out as previously described.

p21 = experiment: qPCR analysis of p21 mRNA level in FKBP12^F36V-p53 H1299 cells; assay type: cell-based, Human; conditions: indicated doses, 8 hr, FIG. 7C
[1] = system: p21 (CDKNIA), PUMA, MDM2, and GLS2; experiment: Immunoblot of p53 target gene expression in FKBP12^F36V-p53 H1299 cells; assay type: cell-based, Human
Method: (§1) Immunoblotting: Cells were harvested in cold DPBS by scraping and washed with cold DPBS twice. Cell pellets were resuspended in DPBS supplemented with 5 mM sodium butyrate, 20 mM Nicotinamide, and 1X Halt Protease Inhibitor Cocktail and lysed by sonication (15 ms on, 40 ms off, 15% amplitude, 1s total on x 3). Protein concentration was determined using DC Protein Assay (Bio-Rad) and absorbance read using a CLARIOstar plate reader following manufacturer's instructions. Samples with equal protein content were boiled in 4X SDS gel loading buffer for 10 min. Proteins were separated by 10%, 12.5%, or 15% SDS-polyacrylamide gel electrophoresis and transferred to PVDF membranes using Trans-Blot Turbo RTA Mini […] LF PVDF Transfer Kit (Bio-Rad). Membranes were incubated for 1 h at room temperature with blocking buffer, followed by incubating overnight at 4° C. with primary antibodies. After washing in TBST, the secondary antibodies were incubated with the membranes at room temperature for 1 h. The membranes were washed with TBST for three times and visualized on a Bio-Rad ChemiDoc MP Imaging System with Clarity Max Western ECL substrate (Bio-Rad) or SuperSignal West Femto Chemiluminescent substrate proprietary luminol and peroxide solution kit (Thermo Scientific Pierce).

[2] = system: T2, FKBP12^F36V-p53 (Homo sapiens, F37V); experiment: Immunoblot analysis of FKBP12^F36V-p53 acetylation in H1299 cells; assay type: cell-based
T2 construct: expressed in transfected cells
T2 sequence (P62942 2-108 F37V limits assumed): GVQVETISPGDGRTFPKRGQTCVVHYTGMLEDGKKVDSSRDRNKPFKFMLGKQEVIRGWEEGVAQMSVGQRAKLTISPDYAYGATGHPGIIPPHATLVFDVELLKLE
T2 sequence (Q09472 2-2414 limits assumed, stated change not applied, further chain): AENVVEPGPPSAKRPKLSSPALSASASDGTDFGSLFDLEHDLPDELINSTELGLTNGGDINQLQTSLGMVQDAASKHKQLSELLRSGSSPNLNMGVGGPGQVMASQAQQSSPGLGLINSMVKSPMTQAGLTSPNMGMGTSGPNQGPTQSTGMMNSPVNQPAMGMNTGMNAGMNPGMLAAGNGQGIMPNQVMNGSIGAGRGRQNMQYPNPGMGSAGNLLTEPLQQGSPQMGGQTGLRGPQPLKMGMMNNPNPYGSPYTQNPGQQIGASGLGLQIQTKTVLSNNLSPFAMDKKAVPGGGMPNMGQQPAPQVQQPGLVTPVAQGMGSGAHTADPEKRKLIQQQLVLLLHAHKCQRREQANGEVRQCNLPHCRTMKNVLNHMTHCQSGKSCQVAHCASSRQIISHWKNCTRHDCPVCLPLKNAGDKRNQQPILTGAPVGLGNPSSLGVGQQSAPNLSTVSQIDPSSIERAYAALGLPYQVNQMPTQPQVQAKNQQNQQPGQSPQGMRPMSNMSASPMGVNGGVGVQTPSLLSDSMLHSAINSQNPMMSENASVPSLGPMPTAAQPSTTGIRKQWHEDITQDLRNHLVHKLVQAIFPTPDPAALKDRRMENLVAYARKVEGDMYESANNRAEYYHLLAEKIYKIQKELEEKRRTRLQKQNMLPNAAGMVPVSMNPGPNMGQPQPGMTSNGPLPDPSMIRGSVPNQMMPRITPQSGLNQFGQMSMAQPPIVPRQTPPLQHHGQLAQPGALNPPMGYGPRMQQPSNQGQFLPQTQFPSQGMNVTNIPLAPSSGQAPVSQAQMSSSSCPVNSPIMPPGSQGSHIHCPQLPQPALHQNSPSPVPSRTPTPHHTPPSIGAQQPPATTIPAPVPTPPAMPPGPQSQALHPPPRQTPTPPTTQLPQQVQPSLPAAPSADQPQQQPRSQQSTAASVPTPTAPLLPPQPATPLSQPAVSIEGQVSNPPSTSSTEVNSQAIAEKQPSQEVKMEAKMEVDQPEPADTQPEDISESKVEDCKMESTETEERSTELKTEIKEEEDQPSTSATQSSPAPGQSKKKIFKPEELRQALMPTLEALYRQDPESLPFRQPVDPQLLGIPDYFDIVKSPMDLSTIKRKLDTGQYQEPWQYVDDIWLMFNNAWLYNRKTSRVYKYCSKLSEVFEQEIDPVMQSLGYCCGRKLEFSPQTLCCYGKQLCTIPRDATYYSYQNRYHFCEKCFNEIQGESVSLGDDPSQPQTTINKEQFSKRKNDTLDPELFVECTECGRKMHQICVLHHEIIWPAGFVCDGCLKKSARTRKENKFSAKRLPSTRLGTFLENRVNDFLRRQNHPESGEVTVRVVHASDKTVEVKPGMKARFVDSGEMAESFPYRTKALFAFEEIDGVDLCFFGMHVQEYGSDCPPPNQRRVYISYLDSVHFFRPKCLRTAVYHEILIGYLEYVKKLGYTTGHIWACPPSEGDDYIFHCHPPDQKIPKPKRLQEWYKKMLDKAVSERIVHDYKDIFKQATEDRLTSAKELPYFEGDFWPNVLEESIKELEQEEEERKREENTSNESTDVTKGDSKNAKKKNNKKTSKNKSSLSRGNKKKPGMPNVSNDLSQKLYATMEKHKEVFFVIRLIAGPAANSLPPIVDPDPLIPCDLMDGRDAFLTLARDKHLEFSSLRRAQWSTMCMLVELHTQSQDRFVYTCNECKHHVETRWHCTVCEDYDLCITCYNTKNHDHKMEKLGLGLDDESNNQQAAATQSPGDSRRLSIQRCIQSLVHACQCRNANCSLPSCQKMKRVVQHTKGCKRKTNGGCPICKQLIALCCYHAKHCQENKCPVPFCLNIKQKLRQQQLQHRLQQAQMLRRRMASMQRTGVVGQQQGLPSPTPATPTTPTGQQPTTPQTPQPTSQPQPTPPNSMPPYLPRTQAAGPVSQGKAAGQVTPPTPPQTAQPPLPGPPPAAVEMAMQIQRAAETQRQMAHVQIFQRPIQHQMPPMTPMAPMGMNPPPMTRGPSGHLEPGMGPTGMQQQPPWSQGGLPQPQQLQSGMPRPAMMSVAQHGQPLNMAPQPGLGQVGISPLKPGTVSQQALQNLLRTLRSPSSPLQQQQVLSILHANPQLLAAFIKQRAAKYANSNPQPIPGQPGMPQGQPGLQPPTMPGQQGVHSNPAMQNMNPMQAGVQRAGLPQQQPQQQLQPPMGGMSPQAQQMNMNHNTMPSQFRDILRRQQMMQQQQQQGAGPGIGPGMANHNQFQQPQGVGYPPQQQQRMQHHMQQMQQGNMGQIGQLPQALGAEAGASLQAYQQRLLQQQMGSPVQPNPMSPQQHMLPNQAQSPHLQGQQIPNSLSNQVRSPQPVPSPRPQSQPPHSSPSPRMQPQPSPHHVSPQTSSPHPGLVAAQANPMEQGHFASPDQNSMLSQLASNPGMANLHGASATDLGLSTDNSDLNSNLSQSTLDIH
Method: Lentivirus Production and Transduction: Lentiviral production was performed using HEK293T cells, which were co-transfected with pMD2.G (Addgene, #12259), psPAX2 (Addgene, #12260), and AceTAG lentiviral plasmids using PEI (Polysciences Inc). Viral particles were collected 72 h after transfection and filtered through a […] membrane. A range of dilutions of the lentivirus in DMEM complete and 10 μg/mL polybrene were added to HeLa, H1299, or HeLa RelA KO cell lines. Transduced cells were selected with 1 μg/mL or 2 μg/mL puromycin.
as §1

[3] = target: T3, FKBP12^F36V and the bromodomain of p300 (BRD-p300) (Homo sapiens, UniProt P62942+Q09472, F37V); experiment: GST-FKBP12^F36V/His-P300-BRD AlphaScreen assay, ternary complex formation; assay type: binding; conditions: FIG. 3B
T3 construct: A construct containing residues 2-108 of FKBP12^F36V in pGEX4t-1 vector; the BRD domain of p300 (BRD-p300); purchased) 31372; host or cells: E. coli BL21(DE3) (GST-FKBP12^F36V)
T3 sequence (P62942 2-108 F37V): as the sequence (P62942 2-108 F37V limits assumed) above
T3 sequence (Q09472 1049-1156): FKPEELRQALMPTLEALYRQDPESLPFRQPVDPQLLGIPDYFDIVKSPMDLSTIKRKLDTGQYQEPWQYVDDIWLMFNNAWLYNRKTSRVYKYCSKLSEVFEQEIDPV
Method: GST-FKBP12^F36V/His-P300-BRD AlphaScreen Assay: GST-FKBP12^F36V and 6xHis-p300-BRD (active motif #31372) were diluted to 250 nM and 500 nM, in assay buffer (50 mM HEPES pH 7.4, 200 mM NaCl, 1 mM TCEP, and 0.1% BSA), […] of protein mixture was added to each well of a 1/2 area 96-well OptiPlate (PerkinElmer). Compounds were then added from DMSO stock to protein mixture ([…]) with 1% DMSO in final mixture. Plates were then shaken orbitally at room temperature for 1 h. Nickel Chelate AlphaLISA Acceptor and Glutathione AlphaLISA Donor beads (PerkinElmer) diluted to 20 ng/ml in assay buffer and […] beads mixture was added to each well. After a 1 h orbital shaking at room temperature. luminescence was measured on the Envision 2104 plate reader (PerkinElmer). Data were plotted and analyzed using GraphPad PRISM v8 and fit with ‘Bell-shaped’ dose response curve.

p21 promoter = experiment: ChIP-qPCR of FKBP12^F36V-p53 binding to p21 promoter; assay type: cell-based, Human; conditions: AceTAG-1 treatment vs DMSO, FIG. 7G
Text: The p53/p21 ^CIP/WAF1 pathway is one of the most well-studied pathways related to p53 acetylation ^[8a, 14]. It has been reported that acetylation of p53 at lysine 373 and 382 play an important in activating transcription and translation of the p21^CIP/WAF1 gene^[15], which inhibits cell cycle progression during G1 and G2 phases ^[16]. However, it is still unknown whether these are the only two sites necessary for activation of downstream pathway. Moreover, the molecular mechanism as to how AceTAG-1 mediates p21 induction is currently uncertain as there are multiple hypotheses of how p53 acetylation affects transcriptional activity. […] We first tested whether AceTAG-mediated p53 acetylation increases its DNA binding to p21 promoter by ChIP-qPCR. The cells were incubated with AceTAG-1 and FKBP12^F36V-HA-p53 was immunoprecipitated, where DNA binding to the protein was purified for qPCR analysis. Among five p21 DNA sequences, binding of FKBP12^F36V-p53 to four previously reported p53 binding sites on p21 promoter (Mujtaba et al., Molecular Cell 13, 251-263, 2004) were increased with AceTAG-1 treatment.

T1 sequence (Q09472 whole entry, species assumed): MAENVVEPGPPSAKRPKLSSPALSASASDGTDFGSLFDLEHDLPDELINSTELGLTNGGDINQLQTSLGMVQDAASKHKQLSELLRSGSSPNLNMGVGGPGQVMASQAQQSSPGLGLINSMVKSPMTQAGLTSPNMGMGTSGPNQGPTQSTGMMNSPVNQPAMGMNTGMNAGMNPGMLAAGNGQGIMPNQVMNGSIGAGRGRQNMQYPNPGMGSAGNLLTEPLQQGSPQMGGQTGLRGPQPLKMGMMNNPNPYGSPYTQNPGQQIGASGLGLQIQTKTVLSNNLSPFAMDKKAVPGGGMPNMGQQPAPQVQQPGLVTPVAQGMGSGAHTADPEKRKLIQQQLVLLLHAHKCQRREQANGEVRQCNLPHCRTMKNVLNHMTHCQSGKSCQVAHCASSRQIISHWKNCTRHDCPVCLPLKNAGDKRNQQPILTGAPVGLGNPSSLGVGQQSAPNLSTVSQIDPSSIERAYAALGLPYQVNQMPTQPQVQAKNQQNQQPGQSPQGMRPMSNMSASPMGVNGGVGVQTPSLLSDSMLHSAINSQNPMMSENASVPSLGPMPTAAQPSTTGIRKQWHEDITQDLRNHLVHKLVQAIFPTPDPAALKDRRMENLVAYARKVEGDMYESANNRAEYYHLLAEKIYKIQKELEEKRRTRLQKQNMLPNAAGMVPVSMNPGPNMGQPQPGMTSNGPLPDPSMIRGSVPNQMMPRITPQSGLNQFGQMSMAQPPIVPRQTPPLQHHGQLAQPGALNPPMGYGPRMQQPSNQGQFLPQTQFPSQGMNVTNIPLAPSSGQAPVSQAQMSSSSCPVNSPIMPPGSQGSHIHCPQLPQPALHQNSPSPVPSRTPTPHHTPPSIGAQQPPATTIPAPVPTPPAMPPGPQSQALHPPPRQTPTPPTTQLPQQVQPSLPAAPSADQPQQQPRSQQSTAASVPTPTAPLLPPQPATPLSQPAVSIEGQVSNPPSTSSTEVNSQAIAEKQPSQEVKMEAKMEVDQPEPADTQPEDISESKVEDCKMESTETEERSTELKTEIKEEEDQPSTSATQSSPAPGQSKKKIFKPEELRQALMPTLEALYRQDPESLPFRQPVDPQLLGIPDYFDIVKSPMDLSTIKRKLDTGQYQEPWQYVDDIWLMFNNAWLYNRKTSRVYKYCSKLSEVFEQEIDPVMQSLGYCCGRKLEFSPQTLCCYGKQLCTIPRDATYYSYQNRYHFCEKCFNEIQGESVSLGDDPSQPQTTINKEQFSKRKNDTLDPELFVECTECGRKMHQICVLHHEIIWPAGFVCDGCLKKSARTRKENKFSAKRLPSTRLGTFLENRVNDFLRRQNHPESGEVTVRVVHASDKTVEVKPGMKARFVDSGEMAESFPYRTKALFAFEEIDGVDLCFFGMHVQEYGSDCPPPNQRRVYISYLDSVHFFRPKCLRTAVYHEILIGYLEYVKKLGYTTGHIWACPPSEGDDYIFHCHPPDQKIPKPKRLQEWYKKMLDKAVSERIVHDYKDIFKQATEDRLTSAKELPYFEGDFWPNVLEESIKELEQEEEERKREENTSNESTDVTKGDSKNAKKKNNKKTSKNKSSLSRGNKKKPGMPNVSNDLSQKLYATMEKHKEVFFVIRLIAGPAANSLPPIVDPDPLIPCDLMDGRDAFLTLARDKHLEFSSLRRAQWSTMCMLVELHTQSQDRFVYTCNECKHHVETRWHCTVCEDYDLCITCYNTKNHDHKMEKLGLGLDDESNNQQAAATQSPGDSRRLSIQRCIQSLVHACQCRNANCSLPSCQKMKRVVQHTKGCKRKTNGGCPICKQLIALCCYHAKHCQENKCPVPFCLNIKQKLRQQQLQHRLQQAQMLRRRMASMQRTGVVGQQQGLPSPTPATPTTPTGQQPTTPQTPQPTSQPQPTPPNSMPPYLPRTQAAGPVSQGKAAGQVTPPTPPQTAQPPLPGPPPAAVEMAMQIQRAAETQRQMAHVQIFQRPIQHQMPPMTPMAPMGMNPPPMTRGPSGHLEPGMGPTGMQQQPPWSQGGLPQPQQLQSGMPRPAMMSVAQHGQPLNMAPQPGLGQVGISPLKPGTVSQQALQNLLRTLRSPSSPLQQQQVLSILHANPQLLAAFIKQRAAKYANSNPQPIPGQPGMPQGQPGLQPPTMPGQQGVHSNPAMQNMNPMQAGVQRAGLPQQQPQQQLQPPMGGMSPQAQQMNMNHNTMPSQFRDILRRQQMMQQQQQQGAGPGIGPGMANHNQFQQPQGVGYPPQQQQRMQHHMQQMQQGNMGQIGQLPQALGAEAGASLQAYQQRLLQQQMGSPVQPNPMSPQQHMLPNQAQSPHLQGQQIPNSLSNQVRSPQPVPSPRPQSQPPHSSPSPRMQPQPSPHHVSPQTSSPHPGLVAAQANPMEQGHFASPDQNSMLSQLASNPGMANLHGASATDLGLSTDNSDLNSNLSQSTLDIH

## CC[C@H](C(=O)N1CCCC[C@H]1C(=O)O[C@H](CCc1ccc(OC)c(OC)c1)c1cccc(OCC(=O)NCCOCCOCCC(=O)NCCOc2ccc(CCc3nc4cc(-c5c(C)noc5C)ccc4n3CCN3CCOCC3)cc2)c1)c1cc(OC)c(OC)c(OC)c1 [AceTAG-1, (R)-3-(3,4-dimethoxyphenyl)-1-(3-((15-(4-(2-(5-(3,5-dimethylisoxazol-4-yl)-1-(2-morpholinoethyl)-1H-benzo[d]imidazol-2-yl)ethyl)phenoxy)-2,12-dioxo-6,9-dioxa-3,13-diazapentadecyl)oxy)phenyl)propyl (S)-1-((S)-2-(3,4,5-trimethoxyphenyl)butanoyl)piperidine-2-carboxylate]
p300
  competition of p300-p probe binding to p300: efficiently competed
p21
  transcription of p21 (mRNA, qPCR): confirmed
[1]; FIGS. 7A and 7B
  p21 expression level at higher concentration: reflected the ‘hook effect’
[1]; indicated doses, 8 hr and 24 hr exposure, FIGS. 7A and 7B
  p21 expression: strong dose-dependent expression
[1]; indicated doses, FIG. 7A
  expression of PUMA, MDM2, and GLS2: insignificant effects
[2]; FIG. 6C
  p53 acetylation at higher AceTAG-1 concentrations: apparent acetylation autoinhibition
[2]; FIG. 9E
  treatment time after which a significant level of p53 acetylation is detectable: ~10 min
[2]; indicated doses, 2 hr, FIG. 6C
  p53 acetylation at K305, K373, and K382: strong AceTAG-1-dependent acetylation
[3]; FKBP12^F36V and BRD-p300, AlphaScreen
  concentration of maximum complex formation: ~1 µM
[3]; bell-shaped dose response fit
  AceTAG-mediated ternary complex formation (AlphaScreen curve): increased potence relative to other analogues
p21 promoter
  binding at the non p53 binding sites within the C-terminus of p21 gene: no significant increase
  binding of FKBP12^F36V-p53 to four p53 binding sites on p21 promoter: increased

From patent US20240238426A1, “PROTEIN ACYLATION MODULATION BY HETEROBIFUNCTIONAL MOLECULES” (THE SCRIPPS RESEARCH INSTITUTE, priority 2021, published 2024)
